Data as given in ChEMBL document CHEMBL5620419, “Discovery of new Lenalidomide derivatives as potent and selective GSPT1 degraders” (Eur J Med Chem, 2023).
Active and inactive are the calls of the source. The calls are words filed in the database; no cut-off is given here.

Experiments:
[1] = Downregulation of K2C1 level in human U-937 cells assessed as fold change at 0.1 uM measured after 6 hrs; format: functional
[2] = system: U-937; experiment: Induction of apoptosis in human U-937 cells assessed as late apoptotic cells at 30 nM measured after 24 hr by Annexin V-FITC/7AAD staining based flow cytometry (reference value: 1.49%); format: functional
[3] = system: U-937; experiment: Induction of apoptosis in human U-937 cells assessed as viable cells at 100 nM measured after 24 hr by Annexin V-FITC/7AAD staining based flow cytometry (reference value: 93.55%); format: functional; conditions: read-out: Activity
[4] = system: U-937; experiment: Antiproliferative activity against human U-937 cells measured after 72 hrs by CCK-8 method; format: functional, cell-based; conditions: U-937, 72 h
[5] = system: U-937; experiment: Induction of cell cycle arrest in human U-937 cells assessed as accumulation of cells at G2/M phase at 30 nM measured after 24 hrs by propidium iodide staining based flow cytometry analysis (reference value: 32.33%); format: functional
[6] = Half life in ip dosed Sprague-Dawley rat; format: ADME, organism-based; conditions: in vivo
[7] = system: U-937; experiment: Induction of apoptosis in human U-937 cells assessed as viable cells at 30 nM measured after 24 hr by Annexin V-FITC/7AAD staining based flow cytometry (reference value: 93.55%); format: functional; conditions: read-out: Activity
[8] = target: Protein cereblon/Zinc finger protein Aiolos (Homo sapiens) (UniProt Q96SW2+Q9UKT9); experiment: PROTAC activity at CRBN/IKZF3 in human U-937 cells at upto 300 nM; format: cell-based
Protein cereblon/Zinc finger protein Aiolos (Homo sapiens), sequence (Q96SW2 whole entry, looked up): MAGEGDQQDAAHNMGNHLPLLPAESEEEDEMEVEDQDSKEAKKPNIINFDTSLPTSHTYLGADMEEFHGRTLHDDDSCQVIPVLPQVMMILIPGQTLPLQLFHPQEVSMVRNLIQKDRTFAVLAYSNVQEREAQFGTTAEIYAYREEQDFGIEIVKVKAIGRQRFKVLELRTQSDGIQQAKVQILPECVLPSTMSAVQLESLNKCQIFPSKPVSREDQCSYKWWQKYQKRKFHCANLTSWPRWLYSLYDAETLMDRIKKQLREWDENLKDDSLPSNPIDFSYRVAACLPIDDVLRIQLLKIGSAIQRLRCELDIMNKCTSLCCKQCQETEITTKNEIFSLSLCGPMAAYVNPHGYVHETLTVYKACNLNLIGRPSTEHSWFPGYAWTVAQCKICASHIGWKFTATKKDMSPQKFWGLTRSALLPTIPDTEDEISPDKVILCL
Protein cereblon/Zinc finger protein Aiolos (Homo sapiens), sequence (Q9UKT9 whole entry, looked up): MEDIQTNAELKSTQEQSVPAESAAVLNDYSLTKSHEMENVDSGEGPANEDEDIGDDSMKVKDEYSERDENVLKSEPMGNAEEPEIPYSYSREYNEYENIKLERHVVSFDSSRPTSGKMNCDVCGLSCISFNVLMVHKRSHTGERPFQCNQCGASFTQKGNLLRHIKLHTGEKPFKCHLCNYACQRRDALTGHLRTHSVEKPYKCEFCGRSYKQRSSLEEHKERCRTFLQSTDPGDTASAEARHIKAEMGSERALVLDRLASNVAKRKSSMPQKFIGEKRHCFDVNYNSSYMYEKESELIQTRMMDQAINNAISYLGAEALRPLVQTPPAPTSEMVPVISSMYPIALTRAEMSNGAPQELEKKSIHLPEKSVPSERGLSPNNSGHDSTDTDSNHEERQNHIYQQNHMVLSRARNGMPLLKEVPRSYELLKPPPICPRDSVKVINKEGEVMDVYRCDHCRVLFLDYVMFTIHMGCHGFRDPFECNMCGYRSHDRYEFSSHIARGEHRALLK

[9] = target: T1, Protein cereblon/Eukaryotic peptide chain release factor GTP-binding subunit ERF3A (Homo sapiens) (UniProt Q96SW2+P15170); experiment: PROTAC activity at CRBN/GSPT1 in human U-937 cells assessed as degradation of GSPT1 at 300 nM measured after 6 hrs by Western blot analysis relative to control; format: cell-based
T1 sequence (P15170 whole entry, looked up): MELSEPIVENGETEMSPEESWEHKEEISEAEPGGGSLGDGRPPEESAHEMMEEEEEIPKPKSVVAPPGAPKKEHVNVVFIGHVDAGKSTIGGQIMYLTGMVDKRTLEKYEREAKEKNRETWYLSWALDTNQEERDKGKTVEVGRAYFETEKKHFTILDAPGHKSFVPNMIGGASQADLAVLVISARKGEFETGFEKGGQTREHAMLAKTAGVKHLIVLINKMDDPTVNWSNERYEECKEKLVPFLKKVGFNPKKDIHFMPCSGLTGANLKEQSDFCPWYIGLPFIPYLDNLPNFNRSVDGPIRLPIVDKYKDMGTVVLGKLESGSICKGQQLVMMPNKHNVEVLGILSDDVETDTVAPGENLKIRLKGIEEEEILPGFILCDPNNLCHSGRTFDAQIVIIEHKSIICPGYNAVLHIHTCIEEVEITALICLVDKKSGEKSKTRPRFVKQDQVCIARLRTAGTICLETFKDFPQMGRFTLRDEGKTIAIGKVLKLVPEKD
T1 sequence (Q96SW2 whole entry, looked up): as the sequence (Q96SW2 whole entry, looked up) above

[10] = target: T1, Protein cereblon/Eukaryotic peptide chain release factor GTP-binding subunit ERF3A (Homo sapiens); experiment: PROTAC activity at CRBN/GSPT1 in human MV4-11 cells assessed as degradation of GSPT1 at upto 300 nM by Western blot analysis; format: cell-based
[11] = Downregulation of SRP72 level in human U-937 cells assessed as fold change at 0.1 uM measured after 6 hrs; format: functional
[12] = target: T1, Protein cereblon/Eukaryotic peptide chain release factor GTP-binding subunit ERF3A (Homo sapiens); experiment: PROTAC activity at CRBN/GSPT1 in human U-937 cells assessed as induction of GSPT1 degradation preincubated with MLN4924 for 2 hrs followed by compound addition and measured after 6 hrs by Western blot analysis; format: cell-based
[13] = system: U-937; experiment: Induction of apoptosis in human U-937 cells assessed as early apoptotic cells at 10 nM measured after 24 hr by Annexin V-FITC/7AAD staining based flow cytometry (reference value: 1.44%); format: functional
[14] = target: Cereblon/Ikaros (Homo sapiens) (UniProt Q96SW2+Q13422); experiment: PROTAC activity at CRBN/IKZF1 in human U-937 cells at upto 300 nM by Western blot analysis; format: cell-based
[15] = target: T1, Protein cereblon/Eukaryotic peptide chain release factor GTP-binding subunit ERF3A (Homo sapiens); experiment: PROTAC activity at CRBN/GSPT1 in human MOLT-4 cells assessed as degradation of GSPT1 at upto 300 nM by Western blot analysis; format: cell-based
[16] = system: MOLT-4; experiment: Antiproliferative activity against human MOLT-4 cells measured after 72 hrs by CCK-8 method; format: functional, cell-based; conditions: MOLT-4, 72 h
[17] = Downregulation of K1C10 level in human U-937 cells assessed as fold change at 0.1 uM measured after 6 hrs; format: functional
[18] = target: T1, Protein cereblon/Eukaryotic peptide chain release factor GTP-binding subunit ERF3A (Homo sapiens); experiment: (§1) PROTAC activity at CRBN/GSPT1 in human U-937 cells assessed as degradation of GSPT1 measured after 6 hrs by Western blot analysis; format: cell-based; conditions: dose <= 300.0 nM
[19] = target: Protein cereblon/Eukaryotic peptide chain release factor GTP-binding subunit ERF3A (Homo sapiens, UniProt P15170+Q96SW2); experiment: as §1; format: cell-based
Protein cereblon/Eukaryotic peptide chain release factor GTP-binding subunit ERF3A, sequence (Q96SW2 whole entry): as the sequence (Q96SW2 whole entry, looked up) above
Protein cereblon/Eukaryotic peptide chain release factor GTP-binding subunit ERF3A, sequence (P15170 whole entry): as the sequence (P15170 whole entry, looked up) above

[20] = system: U-937; experiment: Downregulation of cyclin B1 level in human U-937 cells measured after 24 hrs by Western blot analysis; format: functional, cell-based; conditions: dose 10-100 nM
[21] = Downregulation of TIM9 level in human U-937 cells assessed as fold change at 0.1 uM measured after 6 hrs; format: functional
[22] = system: U-937; experiment: Induction of cell cycle arrest in human U-937 cells assessed as accumulation of cells at G0/G1 phase at 10 nM measured after 24 hrs by propidium iodide staining based flow cytometry analysis (reference value: 61.09%); format: functional
[23] = Downregulation of SEC13 level in human U-937 cells assessed as fold change at 0.1 uM measured after 6 hrs; format: functional
[24] = Cmax in oral dosed Sprague-Dawley rat; format: ADME, organism-based; conditions: in vivo
[25] = system: U-937; experiment: Induction of cell cycle arrest in human U-937 cells assessed as accumulation of cells at G2/M phase at 10 nM measured after 24 hrs by propidium iodide staining based flow cytometry analysis (reference value: 32.33%); format: functional
[26] = system: U-937; experiment: Induction of cell cycle arrest in human U-937 cells assessed as accumulation of cells at S phase at 30 nM measured after 24 hrs by propidium iodide staining based flow cytometry analysis (reference value: 6.38%); format: functional
[27] = system: MV4-11; experiment: Antiproliferative activity against human MV4-11 cells measured after 72 hrs by CCK-8 method; format: functional, cell-based; conditions: MV4-11, 72 h
[28] = system: U-937; experiment: Induction of apoptosis in human U-937 cells assessed as necrotic cells at 30 nM measured after 24 hr by Annexin V-FITC/7AAD staining based flow cytometry (reference value: 3.52%); format: functional
[29] = system: U-937; experiment: Induction of cell cycle arrest in human U-937 cells assessed as accumulation of cells at S phase at 100 nM measured after 24 hrs by propidium iodide staining based flow cytometry analysis (reference value: 6.38%); format: functional
[30] = system: U-937; experiment: Induction of cell cycle arrest in human U-937 cells assessed as accumulation of cells at G0/G1 phase at 30 nM measured after 24 hrs by propidium iodide staining based flow cytometry analysis (reference value: 61.09%); format: functional
[31] = Cmax in ip dosed Sprague-Dawley rat; format: ADME, organism-based; conditions: in vivo
[32] = Downregulation of RNT2 level in human U-937 cells assessed as fold change at 0.1 uM measured after 6 hrs; format: functional
[33] = AUC (0 to t) in oral dosed Sprague-Dawley rat; format: ADME, organism-based; conditions: in vivo
[34] = system: U-937; experiment: Induction of apoptosis in human U-937 cells assessed as early apoptotic cells at 100 nM measured after 24 hr by Annexin V-FITC/7AAD staining based flow cytometry (reference value: 1.44%); format: functional
[35] = system: U-937; experiment: Induction of apoptosis in human U-937 cells assessed as necrotic cells at 100 nM measured after 24 hr by Annexin V-FITC/7AAD staining based flow cytometry (reference value: 3.52%); format: functional
[36] = system: U-937; experiment: Downregulation of CDK6 level in human U-937 cells measured after 24 hrs by Western blot analysis; format: functional, cell-based; conditions: dose 10-100 nM
[37] = system: U-937; experiment: Induction of cell cycle arrest in human U-937 cells assessed as accumulation of cells at S phase at 10 nM measured after 24 hrs by propidium iodide staining based flow cytometry analysis (reference value: 6.38%); format: functional
[38] = system: U-937; experiment: Upregulation of caspase-9 level in human U-937 cells measured after 24 hrs by Western blot analysis; format: functional, cell-based; conditions: dose 10-100 nM
[39] = Downregulation of AMPN level in human U-937 cells assessed as fold change at 0.1 uM measured after 6 hrs; format: functional
[40] = system: U-937; experiment: Induction of cell cycle arrest in human U-937 cells assessed as accumulation of cells at G2/M phase at 100 nM measured after 24 hrs by propidium iodide staining based flow cytometry analysis (reference value: 32.33%); format: functional
[41] = system: U-937; experiment: Induction of apoptosis in human U-937 cells assessed as necrotic cells at 10 nM measured after 24 hr by Annexin V-FITC/7AAD staining based flow cytometry (reference value: 3.52%); format: functional
[42] = system: U-937; experiment: Induction of apoptosis in human U-937 cells assessed as late apoptotic cells at 10 nM measured after 24 hr by Annexin V-FITC/7AAD staining based flow cytometry (reference value: 1.49%); format: functional
[43] = system: U-937; experiment: Induction of cell cycle arrest in human U-937 cells assessed as accumulation of cells at G0/G1 phase at 100 nM measured after 24 hrs by propidium iodide staining based flow cytometry analysis (reference value: 61.09%); format: functional
[44] = AUC (0 to t) in ip dosed Sprague-Dawley rat; format: ADME, organism-based; conditions: in vivo
[45] = system: U-937; experiment: Induction of apoptosis in human U-937 cells assessed as early apoptotic cells at 30 nM measured after 24 hr by Annexin V-FITC/7AAD staining based flow cytometry (reference value: 1.44%); format: functional
[46] = system: U-937; experiment: Induction of apoptosis in human U-937 cells assessed as viable cells at 10 nM measured after 24 hr by Annexin V-FITC/7AAD staining based flow cytometry (reference value: 93.55%); format: functional; conditions: read-out: Activity
[47] = target: T1, Protein cereblon/Eukaryotic peptide chain release factor GTP-binding subunit ERF3A (Homo sapiens); experiment: PROTAC activity at CRBN/GSPT1 in human U-937 cells assessed as induction of GSPT1 degradation preincubated with MG132 for 2 hrs followed by compound addition and measured after 6 hrs by Western blot analysis; format: cell-based
[48] = Downregulation of SYIC level in human U-937 cells assessed as fold change at 0.1 uM measured after 6 hrs; format: functional
[49] = target: T1, Protein cereblon/Eukaryotic peptide chain release factor GTP-binding subunit ERF3A (Homo sapiens); experiment: PROTAC activity at CRBN/GSPT1 in human U-937 cells assessed as increase in ubiquitination of GSPT1 at 100 nM preincubated with MG-132 for 2 hrs followed by compound treatment and measured after 24 hrs by coimmunoprecipitation analysis; format: cell-based
[50] = Downregulation of GSPT1 level in human U-937 cells assessed as fold change at 0.1 uM measured after 6 hrs; format: functional
[51] = Downregulation of AIMP2 level in human U-937 cells assessed as fold change at 0.1 uM measured after 6 hrs; format: functional
[52] = Downregulation of SCAM2 level in human U-937 cells assessed as fold change at 0.1 uM measured after 6 hrs; format: functional
[53] = system: U-937; experiment: Upregulation of cleaved caspase-3 level in human U-937 cells measured after 24 hrs by Western blot analysis; format: functional, cell-based; conditions: dose 10-100 nM
[54] = target: T1, Protein cereblon/Eukaryotic peptide chain release factor GTP-binding subunit ERF3A (Homo sapiens); experiment: PROTAC activity at CRBN/GSPT1 in human U-937 cells assessed as half life measured upto 24 hrs in presence of cycloheximide by Western blot analysis; format: cell-based
[55] = target: T1, Protein cereblon/Eukaryotic peptide chain release factor GTP-binding subunit ERF3A (Homo sapiens); experiment: PROTAC activity at CRBN/GSPT1 in human U-937 cells assessed as degradation of GSPT1 at 100 nM measured after 4 to 24 hrs by Western blot analysis; format: cell-based; conditions: time 4-24 hrs
[56] = target: Cereblon/Casein kinase I alpha (Homo sapiens) (UniProt P48729+Q96SW2); experiment: PROTAC activity at CRBN/CK1alpha in human U-937 cells at upto 300 nM by Western blot analysis; format: cell-based
Cereblon/Casein kinase I alpha (Homo sapiens), sequence (P48729 2-337 limits assumed): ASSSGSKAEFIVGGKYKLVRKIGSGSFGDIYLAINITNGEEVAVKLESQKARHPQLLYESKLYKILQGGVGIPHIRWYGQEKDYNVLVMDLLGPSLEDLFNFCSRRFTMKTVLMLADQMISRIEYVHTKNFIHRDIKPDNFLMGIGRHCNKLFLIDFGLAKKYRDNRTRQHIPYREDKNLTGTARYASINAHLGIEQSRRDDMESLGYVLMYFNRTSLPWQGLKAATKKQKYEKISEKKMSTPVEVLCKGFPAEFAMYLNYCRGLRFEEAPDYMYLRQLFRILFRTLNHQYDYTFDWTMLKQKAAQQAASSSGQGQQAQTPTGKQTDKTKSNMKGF
Cereblon/Casein kinase I alpha (Homo sapiens), sequence (Q96SW2 whole entry partner): as the sequence (Q96SW2 whole entry, looked up) above

[57] = system: U-937; experiment: Induction of apoptosis in human U-937 cells assessed as late apoptotic cells at 100 nM measured after 24 hr by Annexin V-FITC/7AAD staining based flow cytometry (reference value: 1.49%); format: functional

IC50 [4]: 0.019 µM | half-life [6]: 1.25 h | Activity [8]: inactive | Emax [9]: 81.7% | Activity [10]: Active | Activity [12]: inactive | Activity [14]: inactive | Activity [15]: Active | IC50 [16]: 0.006 µM | Activity [18]: Dose-Dependent Effect | EC50 [19]: 0.035 µM | Cmax [24]: 0.671 µg/mL | IC50 [27]: 0.027 µM | Cmax [31]: 4.27 µg/mL | AUC(0-t) [33]: 1.05 µg·h/mL | AUC(0-t) [44]: 8.16 µg·h/mL | Activity [47]: inactive | Activity [49]: Active | T1/2 [54]: 6.3 h | Activity [55]: Active | Activity [56]: inactive
SMILES: COCCN(C)Cc1cc(NC(=O)CCc2ccc3c(c2)C(=O)N(C2CCC(=O)NC2=O)C3)cc(Cl)c1C (configuration not stated)
log(activity) [1]: -5.03 | Activity [2]: 14.45% | viability at 0.1 µM [3]: 44.9% | Activity [5]: 26.07% | viability at 0.03 µM [7]: 65.5% | log(activity) [11]: -3.32 | Activity [13]: 1.9% | log(activity) [17]: -9.04 | Activity [20]: Dose-Dependent Effect | log(activity) [21]: -3.32 | Activity [22]: 50.22% | log(activity) [23]: -3.32 | Activity [25]: 31.72% | Activity [26]: 9.99% | Activity [28]: 5.84% | Activity [29]: 6.73% | Activity [30]: 63.89% | log(activity) [32]: -3.36 | Activity [34]: 23.01% | Activity [35]: 5.5% | Activity [36]: Dose-Dependent Effect | Activity [37]: 8.87% | Activity [38]: Dose-Dependent Effect | log(activity) [39]: -3.63 | Activity [40]: 20.68% | Activity [41]: 2.73% | Activity [42]: 2.34% | Activity [43]: 71.09% | Activity [45]: 14.2% | viability at 0.01 µM [46]: 93.2% | log(activity) [48]: -3.32 | log(activity) [50]: -3.32 | log(activity) [51]: -3.32 | log(activity) [52]: -3.32 | Activity [53]: Dose-Dependent Effect | Activity [57]: 27.48%
